Data: paper PMC10721899, “The bactericidal and antibiofilm effects of a lysine-substituted hybrid peptide, CM-10K14K, on biofilm-forming Staphylococcus epidermidis” (Scientific Reports, 2023)
Counter-ions that a name gives are not always drawn. Ends that are not written are not given here.

Tests used:
[1] = test system: S. epidermidis ATCC 35984 (biofilm-producer); assay: microbe, parasite or virus in culture; format: cell-based, Staphylococcus epidermidis; conditions: for MIC, minimum inhibitory concentration: MHB; for MBC, minimum bactericidal concentration: colony count from non-turbid MIC wells
Description: (§1) The S. epidermidis ATCC 35984 (biofilm-producer), Staphylococcus aureus ATCC 25923, Enterococcus faecalis ATCC 29219, Acinetobacter baumannii ATCC 19606, Klebsiella pneumoniae ATCC 27736 and Pseudomonas aeruginosa ATCC 27853 were grown overnight on trypticase soy agar (TSA; BD Bacto™), then subcultured in TSB and incubated at 37 °C for 16–18 h before each experiment. Stock bacterial cultures were kept frozen at − 80 °C in trypticase soy broth (TSB; BD Bacto™, USA) containing 20% glycerol.
(§2) The antimicrobial activity of peptides against S. epidermidis and five strains of both gram-positive and gram-negative bacteria frequently involved in catheter-related infections including S. aureus, E. faecalis, A. baumannii, K. pneumoniae, and P. aeruginosa was compared to that of vancomycin (Vancomycin hydrochloride, BioChemica, UK) using a modified version of the National Committee for Clinical Laboratory Standards (NCCLS) broth microdilution method. Two-fold serially diluted (0.98–250 µg/mL) aliquots of the peptides were prepared in type 1 water and added to sterile 96-well polypropylene microplates (Nunclon Delta-Treated; Thermo Scientific™, Denmark) in a volume of 50 µL, followed by the addition of 50 µL of bacterial suspensions (2–7 × 10^5 CFU/mL) in Mueller Hinton Broth (MHB; BD Difco™, USA). Uninoculated MHB and bacterial cultures without peptides were used as negative and positive controls, respectively. After culturing in an incubator shaker for 24 h at 37 °C, the lowest concentration at which the peptide inhibited bacterial growth as observed by visual inspection was taken as the minimal inhibitory concentration (MIC)[22]. Fifty microliter aliquots from each non-turbid well identified in the MIC experiment were plated on TSA for determination of minimal bactericidal concentration (MBC) by colony count assay. […] All experiments were performed in triplicate.

[2] = test system: human red blood cells (hRBCs); assay: Hemolytic activity; format: cell-based; conditions: 1 h at 37 °C, relative to Triton-X control
Description: The quantity of hemoglobin released by treatment was used as a measure of a peptide’s hemolytic activity against human red blood cells (hRBCs)[23]. Venous blood was collected from a healthy volunteer in plastic blood collection tubes with lithium heparin (BD Vacutainer™, USA) and centrifuged at 2000×g for 5 min to separate the plasma and buffy coat. The hRBCs obtained were washed at least three times and diluted to 4% (vol/vol) in phosphate-buffered saline (PBS; Caisson Laboratories, USA). The same volume of the hRBC suspension (50 µL) was incubated with twofold, serially diluted concentrations (0.98–250 μg/mL) of peptide dissolved in PBS for 1 h at 37 °C. The hRBCs incubated in 0.1% Triton X-100 and PBS were used as positive (100% hemolysis) and negative (0% hemolysis) controls, respectively. The release of hemoglobin into the supernatants was monitored by measurement of absorbance at 405 nm using a Multiskan SkyHigh microplate reader (Thermo Scientific™, Singapore). The percentage of hemolysis was calculated as previously described.

[3] = test system: S. epidermidis ATCC 35984; assay: Biofilm inhibition assay, crystal violet staining; format: cell-based, Staphylococcus epidermidis
Description: The biofilm biomass was assessed using crystal violet staining to determine the ability of peptides to inhibit bacterial formation of biofilm ^1. Overnight S. epidermidis cultures were adjusted to an OD620 of 0.1 in TSB. An equal volume (50 µL) of bacterial suspension (~10^8 CFU/mL) was incubated with 2-fold serially diluted peptides (0.98-250 μg/mL) at 37°C for 24 h in 96-well plates. Supernatants were discarded after incubation, and wells were gently rinsed at least twice with 0.85% NaCl to remove planktonic cells. Adherent biofilms were fixed for 30 minutes with 95% ethanol, then the fixative solution was removed. The fixed biofilms were dried thoroughly and stained with addition of 150 µL of 0.1% crystal violet (CV) to each well containing biofilm, along with its respective control media. After 15 min, CV solutions were removed and wells were gently rinsed three times with 400 μL of 0.85% NaCl without disturbing the biofilm. The plates were left to dry for 30 min before adding 200 μL of 95% ethanol to each well to solubilize the bound CV with vigorous pipetting. The biofilm mass was evaluated by observing OD at 570 nm using a Multiskan SkyHigh microplate reader ^2. Results were expressed as the percentage of biofilm mass compared to that of control.

Cytotoxicity, MTT assay = format: cell-based, mouse; conditions: mouse, L929 mouse fibroblast cells (NCTC clone 929), L929, 24 h, read-out: cell viability
Description: (§3) The cytotoxicity of the candidate peptide on L929 mouse fibroblast cell lines (NCTC clone 929) were evaluated using the 3-(4,5-dimethylthiazol-2-yl)-2,5-diphenyltetrazolium bromide (MTT) assay following the published protocol. L929 cells (3–5 × 10^4) in RPMI 1640 medium, supplemented with 10% (vol/vol) heat-inactivated fetal bovine serum, 2 mM L-glutamine, 0.2% (wt/vol) sodium bicarbonate, 100 U/mL penicillin and […] streptomycin were placed into each well of 96-well plates and incubated in 5% CO2 at 37 °C overnight. After removal of media, the two-fold serially diluted peptide was added to achieve final concentrations of 0.98–250 µg/mL. Plates were then incubated at 37 °C under 5% CO2 for 24 h. The RPMI 1640 medium with and without L929 seeded cells were used as positive and negative controls, respectively. After treatment, MTT (Sigma-Aldrich, USA) was added to a final concentration of 0.5 mg/mL and suspensions incubated for 4 h at 37 °C under 5% CO2. Supernatants from each well were then discarded, and 150 µl of dimethyl sulfoxide (DMSO; Fisher BioReagents™, UK) was added and gently mixed to dissolve the crystallized formazan. Absorbance was measured at 570 nm using a Multiskan SkyHigh microplate reader. Cell viability (%) was estimated according to the following formula: Cellviability%=AbsTreated-AbsBlank/AbsUntreated-AbsBlank×100

[4] = test system: L929 mouse fibroblast cells; assay: Cytotoxicity, MTT assay; format: cell-based; conditions: MTT, 24 h
Description: as §3

[5] = test system: Klebsiella pneumoniae ATCC 27736; format: cell-based
Description: as §1, §2

[6] = test system: Pseudomonas aeruginosa ATCC 27853; format: cell-based
Description: as §1, §2

[7] = test system: Enterococcus faecalis ATCC 29219; format: cell-based
Description: as §1, §2

[8] = test system: Acinetobacter baumannii ATCC 19606; format: cell-based
Description: as §1, §2

[9] = test system: Staphylococcus aureus ATCC 25923; format: cell-based
Description: as §1, §2

[10] = test system: S. epidermidis ATCC 35984; assay: Biostability: growth inhibition in the presence of proteinase K; format: cell-based, Staphylococcus epidermidis; conditions: 0.01 mg/mL proteinase K
Description: Proteolysis of peptide by proteinase K was determined using the growth inhibition assay described by Jia et al.[28] with some modifications. […] After 6 and 24 h of incubation, the growth inhibitory effect was determined by measuring the absorbance at 620 nm using a Multiskan SkyHigh microplate reader. The percentage of relative survival rate was calculated as follows: Relativesurvivalrate%=AbsTreated/AbsUntreated×100 where AbsTreated was absorbance value of S. epidermidis cells after incubation with peptide in the presence of proteinase K, AbsUntreated was that of S. epidermidis cells incubated with ultrapure water in the presence of proteinase K.

VWKLFKKIGKVLKKL-NH2 [CM-1V10K14K, VWKLFKKIGKVLKKL-NH2]
MIC, minimum inhibitory concentration ([1]; 24 h at 37 °C): 3.91 µg/mL
MBC, minimum bactericidal concentration [1]: 15.63 µg/mL
HC50, concentration of peptide that causes 50% hemolysis [2]: 118.90 ± 8.19 µg/mL

KWKLFKKIGKVLKVL-NH2 [CM-10K, KWKLFKKIGKVLKVL-NH2]
MIC, minimum inhibitory concentration ([1]; 24 h at 37 °C): 3.91 µg/mL
MBC, minimum bactericidal concentration [1]: 7.81 µg/mL
HC50, concentration of peptide that causes 50% hemolysis [2]: 85.78 ± 9.01 µg/mL

CN[C@H](CC(C)C)C(=O)N[C@H]1C(=O)N[C@@H](CC(N)=O)C(=O)N[C@H]2C(=O)N[C@H]3C(=O)N[C@H](C(=O)N[C@H](C(=O)O)c4cc(O)cc(O)c4-c4cc3ccc4O)[C@H](O)c3ccc(c(Cl)c3)Oc3cc2cc(c3O[C@@H]2O[C@H](CO)[C@@H](O)[C@H](O)[C@H]2O[C@H]2C[C@](C)(N)[C@H](O)[C@H](C)O2)Oc2ccc(cc2Cl)[C@H]1O [Vancomycin, Vancomycin hydrochloride, reference compound]
MIC ([1]; Staphylococcus epidermidis, ATCC35984, MHB, 24 h at 37 °C, read-out: MIC, minimum inhibitory concentration): 3.91 µg/mL
MBC ([1]; Staphylococcus epidermidis, ATCC35984, colony count from non-turbid MIC wells, read-out: MBC, minimum bactericidal concentration): 7.81 µg/mL
effect on biofilm formation ([3]; at its MIC and MBC, 24 h): slightly induced biofilm formation
reduction of the biomass of biofilms ([3]; treatment with > 15.63 µg/mL for 24 h): more than 90%

KWKLFKKIGKVLKKL-NH2 [CM-10K14K, KWKLFKKIGKVLKKL-NH2]
viability at 24 h (Cytotoxicity, MTT assay; at the MBC): 92.9 ± 1.82%
viability at 24 h, 3.91 μg/mL (Cytotoxicity, MTT assay; at the MIC): 100%
IC50 on L929 cells [4]: 56.53 ± 1.84 µg/mL
MBC [5]: 31.25 µg/mL
MIC [5]: 15.63 µg/mL
MBC [6]: 62.5 µg/mL
MIC [6]: 15.63 µg/mL
MBC [7]: 31.25 µg/mL
MIC [7]: 31.25 µg/mL
MBC [8]: 15.63 µg/mL
MIC [8]: 7.81 µg/mL
MBC [9]: 7.81 µg/mL
MIC [9]: 7.81 µg/mL
MIC, minimum inhibitory concentration ([1]; 24 h at 37 °C): 3.91 µg/mL
MBC, minimum bactericidal concentration [1]: 7.81 µg/mL
HC50, concentration of peptide that causes 50% hemolysis [2]: 561.90 ± 88.19 µg/mL

VWKLFKKIGAVLKKL-NH2 [CM-1V14K, VWKLFKKIGAVLKKL-NH2]
MIC, minimum inhibitory concentration ([1]; 24 h at 37 °C): 7.81 µg/mL
MBC, minimum bactericidal concentration [1]: 15.63 µg/mL
HC50, concentration of peptide that causes 50% hemolysis [2]: 131.70 ± 9.23 µg/mL

H-KWKLFKKIGAVLKVL-NH2 [C(1–7)M(2–9), KWKLFKKIGAVLKVL-NH2, reference compound]
antibacterial activity in the presence of proteinase K ([10]; 24-h incubation, CM-10K14K at 31.25 and 62.5 µg/mL): lost its ability to kill bacteria
concentration inhibiting bacterial growth in the presence of proteinase K ([10]; 6 h of incubation): at least its MIC
MIC, minimum inhibitory concentration ([1]; 24 h at 37 °C): 7.81 µg/mL
MBC, minimum bactericidal concentration [1]: 7.81 µg/mL
HC50, concentration of peptide that causes 50% hemolysis [2]: 88.89 ± 4.62 µg/mL

KWKLFKKIGAVLKVLA-NH2 [CM-A, KWKLFKKIGAVLKVLA-NH2]
MIC, minimum inhibitory concentration ([1]; 24 h at 37 °C): 7.81 µg/mL
MBC, minimum bactericidal concentration [1]: 15.63 µg/mL
HC50, concentration of peptide that causes 50% hemolysis [2]: 42.58 ± 1.98 µg/mL
